One data set relates to NF-kB pathway. The data set is described as follows: Immunoblotting of IkB phosphorylation and p65 in HIV-1NL4.3 infected CEM-GFP cells. It is filed as cell-based. The following applies: 100 nM, 24, 48, 72 h post infection. In general terms: Immunoblotting shows a protein as a band on a membrane.
For another data set, the target named is T1, HIV-1 integrase (Human immunodeficiency virus type 1 group M subtype B, UniProt P04585).
T1 construct: HIV-1 integrase enzyme; purchased XpressBio, USA
Description: Cell free assay for HIV-1 Integrase activity. It counts as biochemical. The note with it: 100 nM. The method, then: (§1) MTX-HYD (100 nM) was tested on viral enzymes Reverse Transcriptase (a), Integrase (b) and Protease (c) in an in vitro cell free assay system. Nevirapine (NVP) (500 nM), Raltegravir (RLT) (1 μM), and Indinavir (IND) (500 nM) were used as the control inhibitors of RT, IN, and PR respectively. Untreated wells (UNT) were considered as negative controls. […] 72-hours post-infection virus production was determined in supernatant by p24 antigen capture ELISA (n=3).
MTX-HYD was tested for its effect, if any, on HIV-1 Integrase enzyme using HIV-1 integrase assay kit (XpressBio, USA) according to manufacturer's protocol. Briefly, biotin coated 5′ Donor Strand (DS) was loaded on to streptavidin coated wells and incubated at 37° C. 30-minutes post incubation, wells were washed and unattached DS was removed. After washing, HIV-1 integrase enzyme and Transfer Strand (TS) were added to the wells in presence of MTX-HYD and incubated at 37° C. Raltegravir treated wells were taken as positive controls whereas untreated wells were taken as negative control and DMSO treated wells were taken as vehicle control. 30-minutes post incubation, wells were washed and 100 μL/well TMB substrate was added and incubated for […] at room temperature. 100 μL/well TMB stop solution was added and absorbance was measured at 450 nm.

In data set [1] the test system is different isolates of HIV-1. Description: Anti-HIV activity against different isolates of HIV-1 in CEM-GFP cells and hPBMCs, p24 ELISA. The following applies: 0.5 MOI of different isolates, 0.01, 0.1 and 1 MOI of HIV-1NL4.3. It counts as cell-based. The method, then: Cells were then treated with molecules at different concentrations. Untreated cells were taken as negative control and DMSO treated cells were taken as vehicle control.
(In general: An ELISA detects its analyte on a solid surface through an enzyme-linked reagent.)

In data set [2] the test system is HIV-1NL4.3. It counts as cell-based. The method, then:
Cells were then treated with molecules at different concentrations.

For the next data set, the target named is T2, HIV-1 protease (Human immunodeficiency virus type 1 group M subtype B, UniProt P04585).
T2 construct: HIV-1 protease enzyme; purchased Biovision, USA
Description: Cell free assay for HIV-1 Protease activity. It is filed as biochemical. The following applies: 100 nM. The method, then: as §1
Effect of MTX-HYD on HIV-1 Protease enzyme was determined using HIV-1 Protease Activity Assay Kit, Fluorometric (Biovision, USA) according to manufacturer's protocol. Briefly, in a single step reaction, HIV-1 protease enzyme was diluted in reaction buffer and 10 nmol/well was loaded in 96 well plate in presence or absence of MTX-HYD (100 nM). Indinavir (IND) (500 nM) treated wells were taken as positive control and untreated wells were considered as negative control. 15-minutes post addition, Fluorescence was measured using Molecular Devices M5 at Ex/Em=330/450 nm (FIG. 6).

Data set [3] has as its system HIV-1NL4.3. The data set is described as follows: microbe, parasite or virus in culture. It counts as cell-based. The note with it: Human immunodeficiency virus 1; 10 μM; HIV-1NL4.3 0.1 MOI; TZM-bl cells; luminescence 48 h; read-out: % Inhibition at 10 μM Concentration. How it is done:
TZM-bl cells were seeded at the density of 12,000-15,000 cells/well of 96 well plate with 100 μL DMEM (with 10% FBS) in each well. 12-hours post seeding, the media was replaced with fresh DMEM containing HTV-1NL4.3 at 0.1 MOI and cells were treated with different molecules independently at 10 μM working concentration. Cells were incubated in humidified CO2 incubator for 4-hours. After incubation, the media was replaced and cells were washed twice with incomplete DMEM and 100 μL of complete DMEM was added in each wells along with the molecules of interest and incubated at 37° C. in humidified CO2 incubator. 48-hours post incubation, the media was removed and cells were washed twice with 100 μL of 1×PBS. After washing, cells were lysed using cell culture lysis reagent and Steady-Glo substrate was added at 1:1 ration in each well. Luminescence was measured using Molecular Devices M5 (Table 2). % Inhibition was calculated using following formula and plotted.
[formula] (RLU=Relative Luminescence Unit)

Data set [4] can be described thus: MTT cytotoxicity in different cell types (CEM-GFP, Jurkat J6, U937, hPBMCs). It is filed as cell-based. The note with it: human; all the cell types tested (CEM-GFP, Jurkat J6, U937, hPBMCs). The text has this:
FIG. 2. depicts that MTX-HYD has similar cytotoxicity profile in different cell types. […] Untreated and DMSO treated cells were taken as controls.

Data set [5] addresses T3, HIV-1 reverse transcriptase (Human immunodeficiency virus type 1 group M subtype B, UniProt P04585).
T3 construct: recombinant HIV-1 reverse transcriptase enzyme; purchased Roche, Germany
The data set is described as follows: RNA dependent DNA polymerase activity assay of HIV-1 RT (RDDP assay). The note with it: 100 nM; cell free. It counts as biochemical. How it is done:
as §1
Effect of MTX-HYD and MTX on RNA dependent DNA polymerase activity of HIV-1 RT enzyme was tested with HIV-1 reverse transcriptase colorimetric assay kit (Roche, Germany) according to manufacturer's protocol. Briefly, 0.5 ng of recombinant HIV-1 reverse transcriptase enzyme in reaction buffer in presence or absence of MTX-HYD were incubated at room temperature for 5-10 min. Nevirapine (500 nM) treated wells were taken as positive control whereas untreated wells were taken as negative control and DMSO treated wells were taken as vehicle control. The reaction mixture containing Poly rA/OligodT (template/primers) and biotin or digoxigenin labelled dUTP nucleotide mixture was added to initiate the reverse transcription at 37° C. for 12-16 hours. […] ABTS substrate was then added to observe the colour reaction, which was read at 405 nm.

The CC50 is the concentration giving 50% cytotoxicity. Low readings indicate greater toxicity to the cells, high ones lower toxicity to the cells.

Description for NF-kB pathway: (a) CEM-GFP cells were infected with 0.5 MOI of HIV-1NL4.3 in presence or absence of MTX-HYD (100 nM). Cells were harvested at different time points (24 h, 48 h and 72 h) post-infection. Phosphorylation of IxB was analysed by immunoblotting. (c) CEM-GFP cells were infected with 0.5MOI of HIV-1NL4.3 in presence or absence of MTX-HYD (100 nM) and nuclear cytoplasmic fractions were prepared using NE-PER nuclear-cytoplasmic fractionation kit. p65 levels in both cytoplasm and nucleus were analyzed by immunoblotting. (b and d) Densitometric analysis of immunoblots using QuantityOne software (n=3).

On to `CN(Cc1cnc2nc(N)nc(N)c2n1)c1ccc(C(=O)N[C@@H](CCC(=O)O)C(=O)O)cc1` [Methotrexate Hydrate], for which, in the data set on NF-kB pathway, the IkB phosphorylation result was “may inhibit IkB phosphorylation”. Moreover, the “effect on Integrase” value on HIV-1 integrase was “does not target viral enzymes”. Also, the “anti-HIV activity across virus isolates and viral loads” value in data set [1] was “not virus isolate and viral load dependent phenomena”. Further, the “stage of virus life cycle at which it acts” value with HIV-1NL4.3 [2] (100 nM, treated at different stages of virus infection, CEM-GFP) is “works at an early stage of the life cycle”. In the data set on HIV-1NL4.3 [2] (versus MTX (FIG. 1)), the “anti-HIV potential better than MTX” value is reported as about 10 fold. Moreover, the “effect on Protease” value at HIV-1 protease was “does not target viral enzymes”. Besides, the inhibition at 10 µM with HIV-1NL4.3 [3] came out at 98.5%. Besides, the CC50 at 48 h in data set [4] lay within 50 to 75 µM. Also, the “effect on Reverse Transcriptase” value in data set [5] is “does not target viral enzymes”.

For the origin of these results see patent US12023336B2, “Antiviral drug compounds and composition thereof” (priority 2018, dated 2024).
